For one assay, the target named is SYK protein kinase (Homo sapiens (Human), UniProt P43405). Put plainly: Syk kinase activity inhibition, Caliper mobility shift assay. It is filed as biochemical. Conditions: Peptide FAM-P22 and ATP, 30 minutes, 28° C. The method, then:
Measure of SYK protein kinase activity was carried out by using the Caliper mobility shift assay. The compound was dissolved with DMSO and diluted with kinase buffer (20 mM HEPES pH 7.5, 0.01% Triton X-100, 5 mM MgCl2, 1 mM MnCl2, 2 mM DTT), and 5 μl of 5 times the final concentration of the compounds (10% DMSO) were added to 384 well plate. […] The mixture was incubated for 30 minutes under 28° C., and 25 μl of stop buffer (100 mM HEPES pH 7.5, 0.015% Brij-35, 0.2% Coating Reagent #3, 50 mM EDTA) was added to terminate the reaction. Conversion rate data was read by Caliper EZ Reader II (Caliper Life Sciences). Conversion rate was converted to inhibition rate data (% inhibition rate=(max−conversion rate)/(max−min)*100). The max refers to the conversion rate of the DMSO control, and min refers to the conversion rate of the enzyme-free control. The curve was drawn with the compound concentration and inhibition rate as the horizontal and vertical coordinates, and the curve was fitted with the XLFit excel add-in version 4.3.1 Software, and IC50 was calculated.

The next assay has as its target HDAC1 (Homo sapiens (Human), UniProt Q13547). The assay is described as follows: HDAC-1 activity inhibition, fluorescence (Synergy MX). Conditions: trypsin and Ac-peptide substrate, 60 minutes, room temperature. It is filed as biochemical. The method, then: HDAC activity was measured by the Synergy MX Multi-Function Microplate Reader. The compounds were dissolved with DMSO, and transferred to a 384 well test plate using an Echo non-contact nanoscale sonic pipetting system. 15 μl of enzyme (HDAC1/HDAC6, respectively) solvent was added, and incubated at room temperature for 15 minutes, then 10 μl of substrate (trypsin and Ac-peptide) solution was added. […] Fluorescence intensity signal was convented into inhibition rate data (% inhibition rate=(max−fluorescence intensity)/(max−min)*100). The max refers to the fluorescence intensity of the DMSO control, and min refers to the fluorescence intensity of the enzyme-free control. The curve was drawn with the compound concentration and inhibition rate as the horizontal and vertical coordinates, and the curve was fitted with the GraphPad Prism V5.0 Software, and IC50 was calculated.

This note sets out measurements from US11142535B2, “Heterocyclic compound as Syk inhibitor and/or Syk-HDAC dual inhibitor” (Hangzhou Innogate Pharma Co., Ltd., priority 2016, dated 2021).

Sequence of HDAC1 (Q13547 whole entry, species assumed): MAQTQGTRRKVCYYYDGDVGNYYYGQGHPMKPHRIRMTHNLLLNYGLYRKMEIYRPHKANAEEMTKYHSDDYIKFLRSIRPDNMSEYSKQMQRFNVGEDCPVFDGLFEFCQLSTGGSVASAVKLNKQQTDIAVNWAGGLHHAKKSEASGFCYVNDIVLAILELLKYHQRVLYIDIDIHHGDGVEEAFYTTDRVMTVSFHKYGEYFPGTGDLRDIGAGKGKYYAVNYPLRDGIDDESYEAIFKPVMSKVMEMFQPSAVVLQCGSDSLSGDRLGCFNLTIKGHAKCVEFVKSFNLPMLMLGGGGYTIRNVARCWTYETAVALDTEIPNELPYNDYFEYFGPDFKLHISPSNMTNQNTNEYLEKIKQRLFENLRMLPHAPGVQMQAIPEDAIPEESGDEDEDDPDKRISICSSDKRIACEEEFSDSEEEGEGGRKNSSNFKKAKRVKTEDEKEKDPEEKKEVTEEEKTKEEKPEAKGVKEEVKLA

As to `O=C(N1CCN2c3ccc(Nc4nc(-c5ccc6cn[nH]c6c5)cn5ccnc45)cc3OC[C@H]2C1)C(F)(F)F` [Compound 9R], the IC50 (usually the concentration that inhibits the measured activity by half) at SYK protein kinase is below 100 nM.

Consider `O=C(NO)c1ccc(NC(=O)c2cccc(-c3cn4ccnc4c(Nc4ccc(N5CCOCC5)cc4)n3)c2)cc1` [Compound 13], for which the IC50 at SYK protein kinase is below 100 nM; at HDAC1, below 200 nM.

As to `O=C(CCCCCCn1ncc2ccc(-c3cn4ccnc4c(Nc4ccc(N5CCOCC5)cc4)n3)cc21)NO` [Compound 14], the IC50 on SYK protein kinase is below 500 nM; at HDAC1, below 20 nM.

As to `CN(CCCCCCC(=O)NO)c1ccc(Nc2nc(-c3ccc4cn[nH]c4c3)cn3ccnc23)cc1` [Compound 20], the IC50 was below 50 nM at SYK protein kinase and below 20 nM at HDAC1.

Turning to `CN(CCOCCC(=O)NO)c1ccc(Nc2nc(-c3ccc4cn[nH]c4c3)cn3ccnc23)cc1` [Compound 22], the IC50 on SYK protein kinase is below 50 nM; on HDAC1, below 500 nM.

`CN(CCN(C)c1ncc(C(=O)NO)cn1)c1ccc(Nc2nc(-c3ccc4cn[nH]c4c3)cn3ccnc23)cc1` [Compound 23]: the results for the IC50 at SYK protein kinase and at HDAC1 were below 50 nM and below 30 nM, respectively.
